Laboratory results published in US12052991B2, “Substituted pyridinyloxybenzenes and salts thereof and use thereof as herbicidal agents” (Bayer Aktiengesellschaft, priority 2018, dated 2024).

Key:
Assay type in all cases: in vivo
[1] = tested on: Abutilon theophrasti (ABUTH); experiment: Herbicidal pre-emergence action, test C (Table C5); conditions: dosage 1280 g/ha; visual scoring after about 3 weeks; 100% = plants have died, 0% = like control plants
In short: (§1)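 Pre-emergence soil-surface spray, 1280 or 320 g/ha, WP/EC in water with 0.5% additive, 600 L/ha. Sandy loam pots, doubly sown. Greenhouse ~3 weeks; visual % effect vs untreated (0% = like control, 100% = dead).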

[2] = tested on: harmful plants ABUTH, AMARE, ECHCG, LOLRI, MATIN, POAAN, SETVI, STEME, ALOMY, DIGSA, KCHSC and VERPE; experiment: Herbicidal pre-emergence action (test C), summary of Tables C1-C12; conditions: application rate of 1280 or 320 g of active ingredient per hectare; summary in words
In short: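 Pre-emergence pot test in sandy loam: WP or EC formulations were sprayed onto the covering soil with 0.5% additive at 600 L/ha water, at 1280 or 320 g/ha. Plants were kept in the greenhouse, and activity was rated visually about 3 weeks later as % versus untreated controls (100% = dead).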

[3] = tested on: Lolium rigidum (LOLRI); experiment: Herbicidal pre-emergence action, test C (Table C2); conditions: visual scoring after about 3 weeks, 100% = plants have died, 0% = like control plants
In short: as §1

[4] = tested on: harmful plants ABUTH, AMARE, ECHCG, LOLRI, MATIN, POAAN, SETVI, STEME, ALOMY, DIGSA, KCHSC and VERPE; experiment: Herbicidal post-emergence action, summary of Tables B1-B12; conditions: application rate of 1280 or 320 g of active ingredient per hectare; summary in words
In short: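 Greenhouse weeds in sandy loam treated post-emergence at the one-leaf stage, 2–3 weeks after sowing, with WP or EC formulations sprayed with 0.5% additive at 600 L/ha water, 1280 or 320 g/ha. Damage rated visually after about 3 weeks versus untreated controls (0% = like control, 100% = dead).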

[5] = tested on: Stellaria media (STEME); experiment: Herbicidal post-emergence action (Table B8); conditions: visual rating about 3 weeks after treatment, 100% = plants have died, 0% = like control plants
In short: (§2)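 Weeds grown from seed in sandy loam in the greenhouse were sprayed at the one-leaf stage, 2 to 3 weeks after sowing, with WP or EC formulations in water plus 0.5% additive at 600 L/ha. Rates corresponded to 1280 or 320 g/ha; damage was rated visually versus untreated controls after about 3 weeks.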

[6] = tested on: Digitaria sanguinalis (DIGSA); experiment: Herbicidal pre-emergence action, test C (Table C10); conditions: visual scoring after about 3 weeks, 100% = plants have died, 0% = like control plants
In short: as §1

[7] = tested on: Amaranthus retroflexus (AMARE); experiment: Herbicidal pre-emergence action, test C (Table C6); conditions: visual scoring after about 3 weeks, 100% = plants have died, 0% = like control plants
In short: as §1

[8] = tested on: Matricaria inodora (MATIN); experiment: Herbicidal post-emergence action (Table B7); conditions: 1280 g/ha; rated visually after about 3 weeks; 100% = plants have died, 0% = like control plants
Procedure: Seeds of mono- and dicotyledonous weed plants were placed in plastic pots in sandy loam soil (doubly sown with in each case one species of mono- or dicotyledonous weed plants per pot), covered with soil and cultivated in a greenhouse under controlled growth conditions. 2 to 3 weeks after sowing, the test plants were treated at the one-leaf stage. The compounds of the invention, formulated in the form of wettable powders (WP) or as emulsion concentrates (EC), were applied onto the green parts of the plants as aqueous suspension or emulsion with addition of 0.5% additive at a water application rate of 600 liters per hectare (converted). After the test plants had been kept in the greenhouse under optimum growth conditions for about 3 weeks, the activity of the preparations was rated visually in comparison to untreated controls. For example, 100% activity=the plants have died, 0% activity=like control plants. Tables B1 to B12 below show the effects of selected compounds of the general formula (I) according to Table 1 on various harmful plants and an application rate corresponding to 1280 or 320 g/ha, which were obtained by the experimental procedure mentioned above.

[9] = tested on: Veronica persica (VERPE); experiment: Herbicidal post-emergence action (Table B12); conditions: visual rating about 3 weeks after treatment, 100% = plants have died, 0% = like control plants
In short: as §2

[10] = tested on: Bassia scoparia (KCHSC); experiment: Herbicidal post-emergence action (Table B11); conditions: visual rating about 3 weeks after treatment, 100% = plants have died, 0% = like control plants
In short: as §2

[11] = tested on: Alopecurus myosuroides (ALOMY); experiment: Herbicidal post-emergence action (Table B9); conditions: rated visually after about 3 weeks, 100% = plants have died, 0% = like control plants
In short: as §2

[12] = tested on: Poa annua (POAAN); experiment: Herbicidal post-emergence action (Table B3); conditions: rated visually after about 3 weeks, 100% = plants have died, 0% = like control plants
In short: as §2

[13] = tested on: Alopecurus myosuroides (ALOMY); experiment: Herbicidal pre-emergence action, test C (Table C9); conditions: visual scoring after about 3 weeks, 100% = plants have died, 0% = like control plants
In short: as §1

[14] = tested on: Echinochloa crus-galli (ECHCG); experiment: Herbicidal pre-emergence action, test C (Table C1); conditions: dosage 1280 g/ha; visual scoring after about 3 weeks; 100% = plants have died, 0% = like control plants
In short: as §1

[15] = tested on: Stellaria media (STEME); experiment: Herbicidal pre-emergence action, test C (Table C8); conditions: visual scoring after about 3 weeks, 100% = plants have died, 0% = like control plants
In short: as §1

[16] = tested on: Amaranthus retroflexus (AMARE); experiment: Herbicidal post-emergence action (Table B6); conditions: visual rating about 3 weeks after treatment, 100% = plants have died, 0% = like control plants
In short: as §2

[17] = tested on: Abutilon theophrasti (ABUTH); experiment: Herbicidal post-emergence action (Table B5); conditions: rated visually after about 3 weeks, 100% = plants have died, 0% = like control plants
In short: as §2

[18] = tested on: Veronica persica (VERPE); experiment: Herbicidal pre-emergence action, test C (Table C12); conditions: visual scoring vs untreated controls
In short: as §1

[19] = tested on: Setaria viridis (SETVI); experiment: Herbicidal pre-emergence action, test C (Table C4); conditions: visual scoring after about 3 weeks, 100% = plants have died, 0% = like control plants
In short: as §1

[20] = tested on: Digitaria sanguinalis (DIGSA); experiment: Herbicidal post-emergence action (Table B10); conditions: visual rating about 3 weeks after treatment, 100% = plants have died, 0% = like control plants
In short: as §2

[21] = tested on: Echinochloa crus-galli (ECHCG); experiment: Herbicidal post-emergence action (Table B1); conditions: rated visually after about 3 weeks, 100% = plants have died, 0% = like control plants
In short: as §2

[22] = tested on: Setaria viridis (SETVI); experiment: Herbicidal post-emergence action (Table B4); conditions: 1280 g/ha; rated visually after about 3 weeks; 100% = plants have died, 0% = like control plants
In short: as §2

[23] = tested on: Matricaria inodora (MATIN); experiment: Herbicidal pre-emergence action, test C (Table C7); conditions: visual scoring after about 3 weeks, 100% = plants have died, 0% = like control plants
In short: as §1

[24] = tested on: Poa annua (POAAN); experiment: Herbicidal pre-emergence action, test C (Table C3); conditions: visual scoring after about 3 weeks, 100% = plants have died, 0% = like control plants
In short: as §1

CCc1cccc(Oc2ccc(Cl)cn2)c1-c1cc(C(F)F)no1 [Example 1-59]
100%: Pre-emergence action against Lolium rigidum (LOLRI) ([3]; dosage 1280 g/ha) | Post-emergence action against Stellaria media (STEME) ([5]; dosage 320 g/ha) | Post-emergence action against Stellaria media (STEME) ([5]; dosage 1280 g/ha) | Pre-emergence action against Digitaria sanguinalis (DIGSA) ([6]; dosage 320 g/ha) | Pre-emergence action against Digitaria sanguinalis (DIGSA) ([6]; dosage 1280 g/ha) | Pre-emergence action against Amaranthus retroflexus (AMARE) ([7]; dosage 320 g/ha) | Pre-emergence action against Amaranthus retroflexus (AMARE) ([7]; dosage 1280 g/ha) | Post-emergence action against Matricaria inodora (MATIN) [8] | Post-emergence action against Veronica persica (VERPE) ([9]; dosage 320 g/ha) | Post-emergence action against Veronica persica (VERPE) ([9]; dosage 1280 g/ha) | Post-emergence action against Alopecurus myosuroides (ALOMY) ([11]; 320 g/ha) | Post-emergence action against Alopecurus myosuroides (ALOMY) ([11]; 1280 g/ha) | Post-emergence action against Poa annua (POAAN) ([12]; 320 g/ha) | Post-emergence action against Poa annua (POAAN) ([12]; 1280 g/ha) | Pre-emergence action against Alopecurus myosuroides (ALOMY) ([13]; dosage 320 g/ha) | Pre-emergence action against Alopecurus myosuroides (ALOMY) ([13]; dosage 1280 g/ha) | Pre-emergence action against Stellaria media (STEME) ([15]; dosage 320 g/ha) | Pre-emergence action against Stellaria media (STEME) ([15]; dosage 1280 g/ha) | Post-emergence action against Amaranthus retroflexus (AMARE) ([16]; dosage 1280 g/ha) | Post-emergence action against Abutilon theophrasti (ABUTH) ([17]; 320 g/ha) | Post-emergence action against Abutilon theophrasti (ABUTH) ([17]; 1280 g/ha) | Pre-emergence action against Veronica persica (VERPE) ([18]; dosage 320 g/ha) | Pre-emergence action against Veronica persica (VERPE) ([18]; dosage 1280 g/ha) | Pre-emergence action against Setaria viridis (SETVI) ([19]; dosage 320 g/ha) | Pre-emergence action against Setaria viridis (SETVI) ([19]; dosage 1280 g/ha) | Post-emergence action against Digitaria sanguinalis (DIGSA) ([20]; dosage 320 g/ha) | Post-emergence action against Digitaria sanguinalis (DIGSA) ([20]; dosage 1280 g/ha)
90%: Pre-emergence action against Abutilon theophrasti (ABUTH) [1] | Post-emergence action against Bassia scoparia (KCHSC) ([10]; dosage 1280 g/ha) | Pre-emergence action against Echinochloa crus-galli (ECHCG) [14] | Post-emergence action against Amaranthus retroflexus (AMARE) ([16]; dosage 320 g/ha)
very good herbicidal activity: herbicidal activity against the harmful plants of Tables C1-C12 in pre-emergence treatment [2] | herbicidal activity against the harmful plants of Tables B1-B12 in post-emergence treatment [4]

FC(F)c1cc(-c2c(Br)cccc2Oc2ccc(Cl)cn2)on1 [Example 1-53]
100%: Pre-emergence action against Lolium rigidum (LOLRI) ([3]; dosage 1280 g/ha) | Pre-emergence action against Digitaria sanguinalis (DIGSA) ([6]; dosage 1280 g/ha) | Pre-emergence action against Amaranthus retroflexus (AMARE) ([7]; dosage 320 g/ha) | Pre-emergence action against Amaranthus retroflexus (AMARE) ([7]; dosage 1280 g/ha) | Post-emergence action against Matricaria inodora (MATIN) [8] | Post-emergence action against Echinochloa crus-galli (ECHCG) ([21]; 320 g/ha) | Post-emergence action against Echinochloa crus-galli (ECHCG) ([21]; 1280 g/ha) | Post-emergence action against Bassia scoparia (KCHSC) ([10]; dosage 1280 g/ha) | Post-emergence action against Alopecurus myosuroides (ALOMY) ([11]; 1280 g/ha) | Post-emergence action against Poa annua (POAAN) ([12]; 320 g/ha) | Post-emergence action against Poa annua (POAAN) ([12]; 1280 g/ha) | Pre-emergence action against Alopecurus myosuroides (ALOMY) ([13]; dosage 320 g/ha) | Pre-emergence action against Alopecurus myosuroides (ALOMY) ([13]; dosage 1280 g/ha) | Post-emergence action against Setaria viridis (SETVI) [22] | Pre-emergence action against Stellaria media (STEME) ([15]; dosage 320 g/ha) | Pre-emergence action against Stellaria media (STEME) ([15]; dosage 1280 g/ha) | Post-emergence action against Amaranthus retroflexus (AMARE) ([16]; dosage 320 g/ha) | Post-emergence action against Amaranthus retroflexus (AMARE) ([16]; dosage 1280 g/ha) | Post-emergence action against Abutilon theophrasti (ABUTH) ([17]; 320 g/ha) | Post-emergence action against Abutilon theophrasti (ABUTH) ([17]; 1280 g/ha) | Pre-emergence action against Veronica persica (VERPE) ([18]; dosage 320 g/ha) | Pre-emergence action against Veronica persica (VERPE) ([18]; dosage 1280 g/ha) | Pre-emergence action against Matricaria inodora (MATIN) ([23]; dosage 320 g/ha) | Pre-emergence action against Matricaria inodora (MATIN) ([23]; dosage 1280 g/ha) | Pre-emergence action against Setaria viridis (SETVI) ([19]; dosage 320 g/ha) | Pre-emergence action against Setaria viridis (SETVI) ([19]; dosage 1280 g/ha) | Post-emergence action against Digitaria sanguinalis (DIGSA) ([20]; dosage 320 g/ha) | Post-emergence action against Digitaria sanguinalis (DIGSA) ([20]; dosage 1280 g/ha) | Pre-emergence action against Poa annua (POAAN) ([24]; dosage 320 g/ha) | Pre-emergence action against Poa annua (POAAN) ([24]; dosage 1280 g/ha)
very good herbicidal activity: herbicidal activity against the harmful plants of Tables C1-C12 in pre-emergence treatment [2] | herbicidal activity against the harmful plants of Tables B1-B12 in post-emergence treatment [4]
90%: Pre-emergence action against Lolium rigidum (LOLRI) ([3]; dosage 320 g/ha) | Post-emergence action against Stellaria media (STEME) ([5]; dosage 1280 g/ha) | Post-emergence action against Bassia scoparia (KCHSC) ([10]; dosage 320 g/ha) | Pre-emergence action against Echinochloa crus-galli (ECHCG) [14]
